Results on 23 molecules are retold here after article PMC3873810, “Structure–Activity Relationship of Adenosine 5′-diphosphoribose at the Transient Receptor Potential Melastatin 2 (TRPM2) Channel: Rational Design of Antagonists” (Journal of Medicinal Chemistry, 2013).

One assay concerns the target T1, human TRPM2 (Homo sapiens, UniProt O94759).
T1 construct: Specific bands of full length TRPM2 (black arrow) and degradation products (gray arrows) are marked; expressed in transfected cells
The experiment in a line: Whole-cell patch clamp, antagonism of TRPM2 activation by 100 μM ADPR in HEK293 clone TRPM2#24. Format: cell-based. To be noted: for Mean outward current of 100 μM ADPR (1) infusion: mean ± SEM; for Antagonist activity at TRPM2, in words: analogue concentration not printed in the sentence (most analogues tested at 900 μM). For orientation: The patch-clamp technique gives a direct electrical read-out from membranes.

The subject of another assay is murine neutrophils. The arrangement: method as in PMID 18025229. Particulars: cited from earlier work.
A further assay concerns TRPM2. Also on record: method as in PMID 20650899. To be noted: even at 60-fold excess of 88 over 1; cited from earlier work.
The test system of a further assay is TRPM2 channel. Particulars: read-out: TRPM2 inhibition IC50; cited from earlier work.
The next assay has as its system human neutrophils. Put plainly: Chemotaxis (migration) of primary human neutrophils in fMLP gradient, μ-Slide Chemotaxis. Format: cell-based. To be noted: 50 nM fMLP gradient; fMLP alone, or with 1.5 mM EGTA, or with 100 μM 8-Ph-ADPR (5); 1 h tracking.
Setting [1] is: analogue 100 μM, equimolar to 100 μM ADPR in pipet solution.
Where [2] appears, read: analogue 900 μM with 100 μM ADPR in pipet solution.
Where [3] appears, read: footnote d: could only be tested at 100 μM due to solubility difficulties, 100 μM ADPR, 0.1% DMSO, read-out: Antagonism at TRPM2 (IC50), result as symbol.
Setting [4] is: against 100 μM ADPR (1) in pipet solution, outward current at +15 mV, HEK293 clone TRPM2#24, read-out: Antagonism at TRPM2 (IC50).
The mark [5] stands for this setting: analogue tested at 900 μM against 100 μM ADPR, footnote c: antagonistic effect observed but not statistically significant, read-out: Antagonism at TRPM2 (IC50), result as symbol.

By IC50 is commonly meant the point on the concentration scale where inhibition reaches its midpoint.

Entries after “also recorded” stand apart in the source; their conditions may differ. Like-named read-outs stand apart in the source and are kept apart here.

T1 sequence (O94759 whole entry): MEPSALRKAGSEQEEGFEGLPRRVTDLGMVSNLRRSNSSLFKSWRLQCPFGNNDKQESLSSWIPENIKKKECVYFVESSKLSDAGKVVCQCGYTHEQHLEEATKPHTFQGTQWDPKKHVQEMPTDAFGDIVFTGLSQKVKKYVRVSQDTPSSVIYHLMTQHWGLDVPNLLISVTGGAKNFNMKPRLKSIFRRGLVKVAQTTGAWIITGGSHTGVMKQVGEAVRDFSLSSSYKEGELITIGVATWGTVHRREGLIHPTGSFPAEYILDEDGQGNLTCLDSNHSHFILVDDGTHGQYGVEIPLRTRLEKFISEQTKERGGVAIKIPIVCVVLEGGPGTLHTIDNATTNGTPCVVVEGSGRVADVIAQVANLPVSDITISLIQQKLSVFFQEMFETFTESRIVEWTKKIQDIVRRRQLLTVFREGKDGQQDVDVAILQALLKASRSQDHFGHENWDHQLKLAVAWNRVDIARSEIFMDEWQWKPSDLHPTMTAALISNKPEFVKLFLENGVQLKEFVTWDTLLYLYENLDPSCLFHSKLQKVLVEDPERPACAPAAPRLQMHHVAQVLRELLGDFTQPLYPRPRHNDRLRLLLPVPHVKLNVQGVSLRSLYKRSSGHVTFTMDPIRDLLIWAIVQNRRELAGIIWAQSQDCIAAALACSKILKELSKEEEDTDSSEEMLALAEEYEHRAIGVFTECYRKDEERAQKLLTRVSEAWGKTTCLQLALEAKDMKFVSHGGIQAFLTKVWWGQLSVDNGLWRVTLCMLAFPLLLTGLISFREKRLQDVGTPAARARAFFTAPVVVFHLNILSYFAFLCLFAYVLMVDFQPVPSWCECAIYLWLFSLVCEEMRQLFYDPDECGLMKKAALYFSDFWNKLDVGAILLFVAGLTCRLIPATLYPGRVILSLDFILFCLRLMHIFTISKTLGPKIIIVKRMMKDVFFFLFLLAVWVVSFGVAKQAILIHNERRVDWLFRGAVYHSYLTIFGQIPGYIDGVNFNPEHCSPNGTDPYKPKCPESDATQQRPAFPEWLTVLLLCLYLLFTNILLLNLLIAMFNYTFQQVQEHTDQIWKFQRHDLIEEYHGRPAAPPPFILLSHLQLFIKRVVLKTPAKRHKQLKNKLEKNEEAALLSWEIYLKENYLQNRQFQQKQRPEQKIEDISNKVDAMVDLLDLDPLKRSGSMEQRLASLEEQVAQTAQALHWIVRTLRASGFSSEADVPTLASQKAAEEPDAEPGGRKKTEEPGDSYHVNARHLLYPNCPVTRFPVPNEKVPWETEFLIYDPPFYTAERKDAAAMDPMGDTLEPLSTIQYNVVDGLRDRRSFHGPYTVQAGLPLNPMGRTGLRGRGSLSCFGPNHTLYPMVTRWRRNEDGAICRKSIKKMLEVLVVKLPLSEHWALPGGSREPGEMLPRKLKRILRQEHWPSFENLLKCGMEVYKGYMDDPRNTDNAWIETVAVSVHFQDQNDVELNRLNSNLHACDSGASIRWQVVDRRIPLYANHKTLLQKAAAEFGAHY

Regarding `Nc1ncnc2c1ncn2CCCCOP(=O)(O)OP(=O)(O)OC[C@H]1OC(O)[C@H](O)[C@@H]1O` (stereo partly shown) [compound 30, 9-(4-Hydroxybutyl)adenine-5′-diphosphoribose], at human TRPM2 (against 100 μM ADPR (1) in pipet solution, outward current at +15 mV, HEK293 clone TRPM2#24), the “Antagonism at TRPM2 (IC50)” value is “upper micromolar range”. Besides, the results for the “Effect on activation of TRPM2 by ADPR (1), in words” value (shortened to “Effect on activation of TRPM2”) on human TRPM2 (setting [1]) and at human TRPM2 (setting [2]) were “no inhibition” and “nearly complete inhibition”, respectively.

In the case of `Nc1ncnc2c1nc(-c1ccccc1)n2[C@H]1C[C@H](O)[C@@H](COP(=O)(O)OP(=O)(O)OC[C@H]2OC(O)[C@H](O)[C@@H]2O)O1` (stereo partly shown) [compound 86, 8-Phenyl-2′-deoxyadenosine-5′-diphosphoribose], the “Effect on activation of TRPM2” value on human TRPM2 (setting [2]) is recorded as “completely inhibited activation of TRPM2”.

Consider `CCCCCCNc1c(NC[C@H]2O[C@@H](n3cnc4c(N)ncnc43)[C@H](O)[C@@H]2O)c(=O)c1=O` [compound 67, 3-(5′-Amino-5′-deoxyadenosine)-4-(hexylamino)cyclobut-3-ene-1,2-dione], for which, at human TRPM2 (setting [3]), the half-maximal inhibitory concentration (IC50) was more than 900 µM.

Turning to `Nc1ncnc2c1ncn2[C@@H]1O[C@H](COP(=O)(O)OP(=O)(O)OC[C@H]2OC(O)[C@H](O)[C@@H]2O)[C@@H](O)[C@H]1O` (stereo partly shown) [compound 1, Adenosine 5′-diphosphoribose], the “Mean outward current of 100 μM ADPR (1) infusion” value turned out to be 1.13 ± 0.14 nA on human TRPM2 (control of the set of experiments for 4, n = 16); 1.17 ± 0.13 nA at human TRPM2 (control of the set of experiments for 5, n = 16); 1.70 ± 0.25 nA at human TRPM2 (control of the set of experiments for 6, n = 20); 1.25 ± 0.14 nA on human TRPM2 (control of the set of experiments for 7, n = 22); 1.44 ± 0.20 nA on human TRPM2 (control of the set of experiments for 84, n = 8); 1.23 ± 0.22 nA on human TRPM2 (control of the set of experiments for 86, n = 15).

With `Nc1ncnc2c1ncn2[C@H]1C[C@H](O)[C@@H](COP(=O)(O)O)O1` [compound 31, 2′-deoxy-AMP, reference compound], the “Antagonist activity at TRPM2, in words” value on human TRPM2 (100 μM ADPR) was “weak antagonist”. The IC50 at human TRPM2 (setting [4]) is 100 to 900 µM. The “Effect on activation of TRPM2” value is recorded as “antagonist effect was lost” at human TRPM2 (setting [1]) and “suppressed activation of TRPM2” at human TRPM2 (setting [2]).

For `Nc1ncnc2c1nc(Br)n2[C@@H]1O[C@H](COP(=O)(O)OP(=O)(O)OC[C@H]2OC(O)[C@H](O)[C@@H]2O)[C@@H](O)[C@H]1O` (stereo partly shown) [compound 4, 8-Br-ADPR, reference compound], in the assay on murine neutrophils, the “Sensitivity of Ca2+ signalling and chemotaxis of murine neutrophils, in words” value was “very sensitive”. Moreover, the “Effect on activation of TRPM2” value on human TRPM2 (setting [2]) was “significantly inhibited TRPM2 activation”.

As to `Nc1nc(F)nc2c1ncn2[C@@H]1O[C@H](COP(=O)(O)OP(=O)(O)OC[C@H]2OC(O)[C@H](O)[C@@H]2O)[C@@H](O)[C@H]1O` (stereo partly shown) [compound 16, 2-F-ADPR], at human TRPM2 (100 μM ADPR), the “Antagonist activity at TRPM2, in words” value is “did not antagonize activation of TRPM2”. Further, the IC50 on human TRPM2 (setting [5]) was more than 900 µM.

Turning to `Nc1ncnc2c1ncn2[C@@H]1O[C@H](CNc2c(NC[C@H]3O[C@@H](O)[C@H](O)[C@@H]3O)c(=O)c2=O)[C@@H](O)[C@H]1O` [compound 64, 3-(5′-Amino-5′-deoxyadenosine)-4-(5″-amino-5″-deoxy-β-D-ribofuranose)cyclobut-3-ene-1,2-dione], the IC50 on human TRPM2 (setting [3]) is more than 900 µM.

On to `CCCCNc1c(NC[C@H]2O[C@@H](n3cnc4c(N)ncnc43)[C@H](O)[C@@H]2O)c(=O)c1=O` [compound 66, 3-(5′-Amino-5′-deoxyadenosine)-4-butylamino-cyclobut-3-ene-1,2-dione], for which, on human TRPM2 (setting [3]), the IC50 is more than 900 µM.

For `Nc1ncnc2c1ncn2[C@@H]1O[C@H](COP(=O)(O)OP(=O)(O)OC2CCCC2)[C@@H](O)[C@H]1O` [compound 80, β-Cyclopentyl-ADP], the “Effect on activation of TRPM2” value on human TRPM2 (setting [2]) is on record as “partial inhibition”.

With `Nc1ncnc2c1ncn2[C@@H]1O[C@H](COP(=O)(O)OP(=O)(O)O)[C@@H](O)[C@H]1O` [compound 44, adenosine 5′-diphosphate, reference compound], the “Antagonist activity at TRPM2, in words” value at human TRPM2 (100 μM ADPR) is “inactive”.

`O=c1[nH]cnc2c1ccn2[C@@H]1O[C@H](COP(=O)(O)OP(=O)(O)OC[C@H]2OC(O)[C@H](O)[C@@H]2O)[C@@H](O)[C@H]1O` (stereo partly shown) [compound 14, 7-Deaza-IDPR]: at human TRPM2 (100 μM ADPR), the “Antagonist activity at TRPM2, in words” value was “without significant effect”. Also, the IC50 at human TRPM2 (setting [5]) is more than 900 µM.

As to `Nc1ncnc2c1nc(-c1ccccc1)n2[C@@H]1O[C@H](Cn2cc(COC[C@H]3OC(O)[C@H](O)[C@@H]3O)nn2)[C@@H](O)[C@H]1O` (stereo partly shown) [compound 73, 1-(5′-Deoxy-8-phenyladenosine)-4-(2″,3″-O-isopropylidene-5″-O-methylribosyl)-1,2,3-triazole], the “Effect on activation of TRPM2” value at human TRPM2 (setting [1]) is “none of these compounds showed antagonist activity”. At human TRPM2 (setting [3]), the IC50 is more than 900 µM.

Regarding `O=c1[nH]cnc2c1ncn2[C@@H]1O[C@H](COP(=O)(O)OP(=O)(O)OC[C@H]2OC(O)[C@H](O)[C@@H]2O)[C@@H](O)[C@H]1O` (stereo partly shown) [compound 13, Inosine-5′-diphosphoribose], the “Antagonist activity at TRPM2, in words” value on human TRPM2 (100 μM ADPR) is given as “did not antagonize activation of TRPM2”. At human TRPM2 (setting [5]), the IC50 is more than 900 µM.

Regarding `Nc1ncnc2c1ncn2[C@@H]1O[C@H](COS(=O)(=O)NC(=O)c2ccccc2O)[C@@H](O)[C@H]1O` [compound 76, salicyl-adenosine monosulfamide], the “Effect on activation of TRPM2” value on human TRPM2 (setting [2]) is recorded as “noticeable antagonist activity”.

`Nc1ncnc2c1nc(Cl)n2[C@@H]1O[C@H](COP(=O)(O)O)[C@@H](O)[C@H]1O` [compound 87, 8-Cl-AMP, reference compound]: the “Effect on activation of TRPM2” value at human TRPM2 (setting [2]) is on record as “no antagonist effect”. Further, at human TRPM2 (setting [5]), the IC50 was more than 900 µM.

Regarding `Nc1ncnc2c1ncn2[C@@H]1O[C@H](CNc2c(NC3CCCC3)c(=O)c2=O)[C@@H](O)[C@H]1O` [compound 65, 3-(5′-Amino-5′-deoxyadenosine)-4-(cyclopentylamino)-cyclobut-3-ene-1,2-dione], the IC50 on human TRPM2 (setting [3]) is more than 900 µM.

On to `Nc1ncnc2c1ncn2[C@@H]1O[C@H](COP(=O)(O)O)[C@@H](O)[C@H]1O` [compound 88, adenosine 5′-monophosphate, reference compound], for which the “Inhibition of ADPR-mediated currents, in words” value in the assay with TRPM2 is listed as “not shown any inhibition”. The “Antagonist activity at TRPM2, in words” value at human TRPM2 (100 μM ADPR) was “no antagonist activity; also recorded: ineffective”.

`Nc1ncnc2c1ncn2[C@@H]1O[C@H](COP(=O)(O)OP(=O)(O)OP(=O)(O)OC[C@H]2OC(O)[C@H](O)[C@@H]2O)[C@@H](O)[C@H]1O` (stereo partly shown) [compound 47, Adenosine Triphosphoribose]: the “Effect on activation of TRPM2” value at human TRPM2 (setting [2]) is reported as “some antagonist effect”. Besides, on human TRPM2 (setting [5]), the IC50 was more than 900 µM.

copper ions: the half-inhibitory concentration (IC50) with TRPM2 channel is 2.6 µM.

On to `Nc1ncnc2c1nc(-c1ccc(CC(N)C(=O)O)cc1)n2[C@@H]1O[C@H](COP(=O)(O)O)[C@@H](O)[C@H]1O` (stereo partly shown) [compound 9, 8-(4-(2-Aminopropanoic acid)phenyl)adenosine-5′-monophosphate], for which the IC50 on human TRPM2 (setting [4]) was in the range of 100 to 900 µM. Besides, the “Effect on activation of TRPM2” value on human TRPM2 (setting [1]) was “antagonist effect was lost”; at human TRPM2 (setting [2]) it was “suppressed activation of TRPM2”.

As to `Nc1ncnc2c1nc(-c1ccccc1)n2[C@@H]1O[C@H](COP(=O)(O)OP(=O)(O)OC2CCCC2)[C@@H](O)[C@H]1O` [compound 84], the “Effect on activation of TRPM2” value at human TRPM2 (setting [1]) is listed as “significant antagonist activity”.

As for `O=C(O)CN(CCOCCOCCN(CC(=O)O)CC(=O)O)CC(=O)O` [EGTA, reference compound], the “Center of mass ∥ (mean movement in the y direction along fMLP gradient)” value in the assay with human neutrophils is reported as 32.6 μm.
